Experiments:
[1] = test system: CYP3A5; test: Pharmacogenetic covariate analysis: CYP3A5*3 on CL/F; format: in vivo, human; details: final model; fractional change of CL/F in CYP3A5*1 carriers
[2] = test system: CYP3A4/CYP3A5; details: for Mean value (%), difference in CL/F, cluster C1 vs C4: C1: CYP3A5*1 noncarriers and CYP3A4*22 carriers; for Mean value (%), difference in CL/F, cluster C2 vs C4: C2: CYP3A5*1 noncarriers and CYP3A4*22 noncarriers
[3] = Population PK modeling; details: for Q/F, intercompartmental clearance: F fixed 0.5/1/0.23
[4] = test system: CYP3A4; test: Pharmacogenetic covariate analysis: CYP3A4*22 on CL/F; format: in vivo, human; details: stated as % lower in text; univariate on base model
[5] = cited from earlier work
[6] = base model without covariates, population estimate
[7] = final model with covariates, population estimate
[8] = final model, median of 1,000 bootstrap runs

Row | CYP3A5*3 on CL/F, covariate effect [1] | Mean value (%), difference in CL/F, cluster C1 vs C4 ([2]; univariate on base model) [%] | difference in clearance introduced for noncarriers of the CYP3A5*1 allele by CYP3A4*22 carriership ([2]; C1 vs C2) [%] | Mean value (%), difference in CL/F, cluster C2 vs C4 ([2]; univariate on base model) [%] | Mean value (%), difference in CL/F, cluster C3 vs C4 ([2]; C3: CYP3A5*1 carriers and CYP3A4*22 carriers, univariate on base model) [%] | Lagtime of absorption [3, 6] [h] | Q/F, intercompartmental clearance [3, 6] [L/h] | Ka [3, 7] [h⁻¹] | Lagtime [3, 7] [h] | Q/F [3, 7] [L/h] | Vc/F [3, 7] [L] | DDPR ≤25 mg (IOV F) [3, 8] | HTC on CL/F + IOV F, covariate effect ([3]; final model, hematocrit) | lower clearance of CYP3A4*22 carriers compared with noncarriers [4] [%] | Vp/F, apparent peripheral distribution volume ([3]; base model without covariates, population estimate, fixed to 500 for tacrolimus) [L] | Vp/F ([3]; final model with covariates, fixed to 500 for tacrolimus) [L] | CL/F [3, 8] [L/h] | IBW on Vc/F, covariate effect ([3]; final model, ideal BW centered on population median, exponential function) | Structure (SMILES) | plasma fraction bound to plasma proteins [5] [%]
1 | 0.52 | −47 | 14 | −33 | −3 | 0.81 | 17.2 | 0.55 | 0.81 | 21 | 25.5 | 0.32 | −0.587 | – | – | – | – | – | C=CC[C@@H]1/C=C(\C)C[C@H](C)C[C@H](OC)[C@H]2O[C@@](O)(C(=O)C(=O)N3CCCC[C@H]3C(=O)O[C@H](/C(C)=C/[C@@H]3CC[C@@H](O)[C@H](OC)C3)[C@H](C)[C@@H](O)CC1=O)[C@H](C)C[C@@H]2OC [Tacrolimus] | –
2 | – | −15 | – | −10 | – | 0.71 | 42.7 | 7 | 0.71 | 43.1 | 140 | – | – | 7 | 348 | 343 | 16.7 | −0.96 | CO[C@H]1C[C@@H]2CC[C@@H](C)[C@@](O)(O2)C(=O)C(=O)N2CCCC[C@H]2C(=O)O[C@H]([C@H](C)C[C@@H]2CC[C@@H](OCCO)[C@H](OC)C2)CC(=O)[C@H](C)/C=C(\C)[C@@H](O)[C@@H](OC)C(=O)[C@H](C)C[C@H](C)/C=C/C=C/C=C/1C [Everolimus] | 75
